In patent publication US20230338491A1, “METHOD FOR SCREENING INDIVIDUAL TUMOR NEOANTIGEN PEPTIDE, AND VACCINE FORMULATION THEREOF” (HANGZHOU NEOANTIGEN THERAPEUTICS CO., LTD., priority 2021, published 2023):
Where two headings read alike, the source gives them in different places. Ends that are not written are not given here.

Test: solubility comparison test in water and mannitol solutions
Assay type: physicochemical
Excerpt: Mannitol is a common adjuvant (skeleton forming agent) of freeze-dried preparation, which is used as a carrier to form a hard uniform skeleton so as to improve appearance of the freeze-dried preparation in glass bottles. […] Hydroxyl groups in mannitol molecule can form hydrogen bonds with carbonyl groups in peptide bonds, which cannot directly promote dissolution of polypeptides, but can promote formation of micelle. Therefore, solubilization of mannitol is mainly solubility enhancement after micelle formation. Results of solubility comparison test of the same polypeptide in water and mannitol solutions with different concentrations shown in table 7 as follows: […]

[1] = Solubility in 1% of mannitol solution
[2] = Solubility in 2% of mannitol solution
[3] = 1% of mannitol solution, read-out: Solubility in 1% of mannitol solution
[4] = 2% of mannitol solution, read-out: Solubility in 2% of mannitol solution
[5] = water, read-out: Solubility in water

| Compound | solubility [1] | solubility [2] | solubility (Solubility in water) | solubility [3] | solubility [4] | solubility [5] |
| --- | --- | --- | --- | --- | --- | --- |
| CC[C@H](C)[C@H](NC(=O)[C@H](CC(C)C)NC(=O)[C@H](CCC(N)=O)NC(=O)[C@@H](NC(=O)[C@@H](NC(=O)[C@H](CC(C)C)NC(=O)[C@H](C)NC(=O)[C@H](CO)NC(=O)[C@H](CCCCN)NC(=O)CNC(=O)[C@@H](NC(=O)CNC(=O)[C@H](CC(=O)O)NC(=O)[C@H](C)NC(=O)CNC(=O)[C@@H](NC(=O)[C@@H](NC(=O)[C@@H](N)CCCCN)C(C)C)C(C)C)C(C)C)[C@@H](C)O)[C@@H](C)CC)C(=O)N[C@@H](CCC(N)=O)C(=O)N[C@@H](CC(N)=O)C(=O)N[C@@H](Cc1c[nH]cn1)C(=O)O [GWMI01] | ≥ 1 mg/mL | ≥ 1 mg/mL | < 0.1 mg/mL |  |  |  |
| DIQDLKTCIASTTQNIEQKKK [WJIA11] |  |  |  | ≥ 1 mg/mL | ≥ 1 mg/mL | < 0.1 mg/mL |
| FAEKLTLILQEKYKNYWYPEKPSKGQAY [YMZH17] |  |  |  | ≥ 1 mg/mL | ≥ 1 mg/mL | 0.3 mg/mL |
| FHDQPHLKRKAVCSFQIYAVPWQGT [HMZH51] |  |  |  | ≥ 10 mg/mL | ≥ 10 mg/mL | < 2 mg/mL |
| FITRPPHRFLSLLCLGLRIPQLSV [YMZH19] |  |  |  | > 1 mg/mL | > 1 mg/mL | < 0.1 mg/mL |
| GQAFKYSSNLLRHMRTHTGEKPF [HMZH60] | ≥ 10 mg/mL | ≥ 10 mg/mL | < 2 mg/mL |  |  |  |
| KEQMMREKEKLMLRLQDYEEKTKK [ZZJI58] |  |  |  | ≥ 1 mg/mL | ≥ 1 mg/mL | < 0.1 mg/mL |
| KFKYVGTMEASEDATFNKITRSLQDLQQK [HMZH66] |  |  |  | ≥ 10 mg/mL | ≥ 10 mg/mL | ≤ 1.5 mg/mL |
| KGFTQGDVGLAMGKLYRNDFSQTTISRFEA [TZQI66] |  |  |  | ≥ 1 mg/mL | ≥ 1 mg/mL | < 0.1 mg/mL |
| KKKGQQLSGVNAIYFYADQIYLSAGVPEEH [GWMI10] |  |  |  | ≥ 1 mg/mL | ≥ 1 mg/mL | < 0.1 mg/mL |
| KKKKFVALVLSTLHMLTYGWTRAFEESRYK [ZZJI44] |  |  |  | ≥ 1 mg/mL | ≥ 1 mg/mL | < 0.1 mg/mL |
| KLTLASWGPKMVLLRLEHQFAVGK [YMZH14] |  |  |  | ≥ 1 mg/mL | ≥ 1 mg/mL | 0.3 mg/mL |
| KLVFVRKSLNRIEFRECREEILKFLKK [GWMI13] |  |  |  | ≥ 1 mg/mL | ≥ 1 mg/mL | < 0.1 mg/mL |
| PGWSLTLGLRCSSRLGLPK [LYLI37, PGWSLTLGLRCSSRLGLPK] |  |  |  | ≥ 1 mg/mL | ≥ 1 mg/mL | < 0.1 mg/mL |
| SRKLEDYGEQKSMSISTAKRLAEFLGDQK [HMZH59] |  |  |  | ≥ 1 mg/mL | ≥ 1 mg/mL | 0.3 mg/mL |
| SSPAEFFELMKGQIRIAKRRVVMASLYLGT [TZQI51] |  |  |  | ≥ 1 mg/mL | ≥ 1 mg/mL | < 0.1 mg/mL |
| SVFGDRITGETIRSQNVMAAASK [WKYE17] |  |  |  | ≥ 1 mg/mL | ≥ 1 mg/mL | < 0.1 mg/mL |
| TSLKGEIAFDPRRAYYLWF [LXJI54, TSLKGEIAFDPRRAYYLWF] |  |  |  | ≥ 1 mg/mL | ≥ 1 mg/mL | < 0.1 mg/mL |
| YKQLTIQVLLDRLVLQRLYPLAIQIKK [YMZH10] |  |  |  | ≥ 1 mg/mL | ≥ 1 mg/mL | 0.3 mg/mL |
